Test results from patent publication EP4595964A1, “TREATMENT OF GM1 GANGLIOSIDOSIS” (Azafaros B.V., priority 2024, dated 2025).

Columns and labels:
[1] = test system: control or GLB1-null cerebral organoids; experiment: Cellularity test in cerebral organoids; assay type: cell-based, human; details: any timepoint, 5 nM, 500 nM
[2] = test system: GLB1-null Ex 2-3 cerebral organoids; assay type: cell-based, human
[3] = test system: GLB1-null Ex 2-3 cerebral organoids; experiment: Neuronal survival and health in the human brain organoid model of GM1 gangliosidosis; assay type: cell-based; details: 5 nM, 500 nM; concomitant with the GM1 reduction

OC[C@H]1[C@@H](O)[C@H](O)[C@@H](O)CN1CCCCCOCc1ccc(-c2ccccc2)c(F)c1 [nizubaglustat]
cellularity [1]: did not reduce | GM1 accumulation ([2]; 5 nM, 500 nM, weeks 18, 20 and 24, dose-dependent fashion, GLB1-null Ex 2-3 cerebral organoids): significantly reduced | level of GLB1 in the EX 2-3 cell line ([2]; Week 24, representative images (Figure 4 top panel), green stain): significantly reduces | reduced the level of GM1 ganglioside ([2]; after 24 weeks of regular (2-3 times per week) administration): at least 2 fold | neuronal survival and health [3]: increased
